Assay results reported in US20150105252A1, “SUBSTITUTED PYRAZOLES AS HERBICIDES” (E I DU PONT DE NEMOURS AND COMPANY, priority 2013, published 2015).

Assays:
morningglory [1] = assay: Test A preemergence; type: in vivo, Ipomoea spp.; settings: preemergence; for Morningglory plant response rating (0 to 100 scale): 125 g ai/ha, visual injury approx. 10 days after treatment
In short: (§1)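 Greenhouse test in loam soil/sand blend; compounds formulated in non-phytotoxic solvent with surfactant, applied as preemergence directed soil spray or postemergence to plants 2–10 cm tall at one- to two-leaf stage. Injury rated visually versus untreated controls after approximately 10 days on a 0 (no effect) to 100 (complete control) scale.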

wheat = assay: Test A preemergence; type: in vivo, Triticum aestivum; settings: preemergence; for Wheat plant response rating (0 to 100 scale): 125 g ai/ha, visual injury approx. 10 days after treatment
In short: as §1

corn = assay: Test A preemergence; type: in vivo, Zea mays; settings: preemergence; for Corn plant response rating (0 to 100 scale): 125 g ai/ha, visual injury approx. 10 days after treatment; for Corn plant response rating: 500 g ai/ha, visual injury after approx. 10 days, 0 to 100 scale (0 no effect, 100 complete control)
In short: as §1

blackgrass [2] = assay: Test C preemergence; type: in vivo, Alopecurus myosuroides; settings: preemergence; for Plant response rating, Blackgrass: 125 g ai/ha, scale 0 to 100, 0 = no effect, 100 = complete control
In short: (§2)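 Seeds were sown in a loam soil–sand blend and sprayed preemergence with compounds formulated in a non-phytotoxic solvent mixture containing surfactant. Postemergence plants, grown in peat/vermiculite medium to 2–18 cm (1- to 4-leaf stage), received the same formulation. After 13 to 15 days in a greenhouse, injury was rated visually against controls (0 = no effect, 100 = complete control).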

ryegrass, Italian = assay: Test C preemergence; type: in vivo, Lolium multiflorum
In short: as §2

johnsongrass = assay: Test C preemergence; type: in vivo, Sorghum halepense
In short: as §2

morningglory [3] = assay: Test C preemergence; type: in vivo, Ipomoea coccinea
In short: as §2

pigweed [4] = assay: Test C preemergence; type: in vivo, Amaranthus retroflexus
In short: as §2

barnyardgrass = assay: Test C preemergence; type: in vivo, Echinochloa crus-galli; settings: preemergence; for Plant response rating, Barnyardgrass: 125 g ai/ha, scale 0 to 100, 0 = no effect, 100 = complete control
In short: as §2

blackgrass [5] = assay: Test C postemergence; type: in vivo, Alopecurus myosuroides; settings: for Plant response rating (scale of 0 to 100 where 0 is no effect and 100 is complete control), Blackgrass: Postemergence, 31 g ai/ha, visually evaluated after 13 to 15 days; for Blackgrass plant response rating / Plant response rating, Blackgrass: postemergence; for Blackgrass plant response rating: 62 g ai/ha, scale 0 to 100
In short: as §2

morningglory [6] = assay: Test C postemergence; type: in vivo, Ipomoea coccinea; settings: for Plant response rating (scale of 0 to 100 where 0 is no effect and 100 is complete control), Morningglory: Postemergence, 31 g ai/ha, visually evaluated after 13 to 15 days; for Morningglory plant response rating / Plant response rating, Morningglory: postemergence; for Morningglory plant response rating: 62 g ai/ha, scale 0 to 100
In short: as §2

pigweed [7] = assay: Test C postemergence; type: in vivo, Amaranthus retroflexus; settings: postemergence; for Pigweed plant response rating: 62 g ai/ha, scale 0 to 100
In short: as §2

ragweed = assay: Test C postemergence; type: in vivo, Ambrosia elation; settings: postemergence
In short: as §2

[8] = 31 g ai/ha, visual rating, scale 0 to 100 (0 no effect, 100 complete control), 13 to 15 days
[9] = 62 g ai/ha, scale 0 to 100 (0 no effect, 100 complete control), 13 to 15 days
[10] = 250 g ai/ha, scale 0 to 100, 0 is no effect, 100 is complete control
[11] = Preemergence, rate head not shown (block before 16 g ai/ha), scale 0 to 100
[12] = preemergence, 62 g ai/ha, scale 0 to 100 (0 no effect, 100 complete control), 13 to 15 days
[13] = preemergence, 125 g ai/ha, 13 to 15 days, scale 0 to 100, 0 = no effect, 100 = complete control
[14] = preemergence, 250 g ai/ha, scale 0 to 100, 0 is no effect, 100 is complete control
[15] = 250 g ai/ha, scale 0 to 100 (0 no effect, 100 complete control)
[16] = 125 g ai/ha, scale 0 to 100, 0 no effect, 100 complete control
[17] = 500 g ai/ha, visual injury after approx. 10 days, 0 to 100 scale (0 no effect, 100 complete control)
[18] = preemergence, 31 g ai/ha, visual rating, scale 0 to 100 (0 no effect, 100 complete control), 13 to 15 days

With `CCc1cc(C(=O)NC2CC2)nn1Cc1ccnc(Br)c1` [Compound 220] the “Morningglory plant response rating (0 to 100 scale)” value (morningglory [1]) was 20, the “Wheat plant response rating (0 to 100 scale)” value (wheat) was 0 and the “Corn plant response rating (0 to 100 scale)” value (corn) was 0. The “Corn plant response rating” value (corn) was 90, the “Blackgrass plant response rating” value (blackgrass [2]; [8]) was 0 and the “Blackgrass plant response rating” value (blackgrass [2]; [9]) was 0. For the same molecule, the “Plant response rating, Blackgrass” value (blackgrass [2]; 13 to 15 days) was 40, the “Blackgrass plant response rating” value (blackgrass [2]; [10]) was 70 and the “Plant response rating, Ryegrass, Italian” value (ryegrass, Italian; [11]) was 0. For the same molecule, the “Ryegrass, Italian plant response rating” value (ryegrass, Italian; [12]) was 0, the “Plant response rating, Ryegrass, Italian” value (ryegrass, Italian; [13]) was 5 and the “Ryegrass, Italian plant response rating” value (ryegrass, Italian; [14]) was 5. The “Plant response rating, Johnsongrass” value (johnsongrass; [11]) was 10, the “Johnsongrass plant response rating” value (johnsongrass; [12]) was 5 and the “Plant response rating, Johnsongrass” value (johnsongrass; [13]) was 5. The “Johnsongrass plant response rating” value (johnsongrass; [14]) was 80, the “Plant response rating, Morningglory” value (morningglory [3]; [11]) was 0 and the “Morningglory plant response rating” value (morningglory [3]; [12]) was 5. For the same molecule, the “Plant response rating, Morningglory” value (morningglory [3]; [13]) was 65, the “Morningglory plant response rating” value (morningglory [3]; [14]) was 75 and the “Plant response rating, Pigweed” value (pigweed [4]; [11]) was 65. The “Pigweed plant response rating” value (pigweed [4]; [12]) was 100, the “Plant response rating, Pigweed” value (pigweed [4]; [13]) was 100 and the “Pigweed plant response rating” value (pigweed [4]; [14]) was 100. The “Barnyardgrass plant response rating” value (barnyardgrass; [8]) was 0, the “Barnyardgrass plant response rating” value (barnyardgrass; [9]) was 15 and the “Plant response rating, Barnyardgrass” value (barnyardgrass; 13 to 15 days) was 35. For the same molecule, the “Barnyardgrass plant response rating” value (barnyardgrass; [10]) was 95, the “Plant response rating (scale of 0 to 100 where 0 is no effect and 100 is complete control), Blackgrass” value (blackgrass [5]) was 5 and the “Blackgrass plant response rating” value (blackgrass [5]) was 5. For the same molecule, the “Plant response rating, Blackgrass” value (blackgrass [5]; [15]) was 20, the “Plant response rating, Blackgrass” value (blackgrass [5]; [16]) was 5 and the “Plant response rating (scale of 0 to 100 where 0 is no effect and 100 is complete control), Morningglory” value (morningglory [6]) was 10. The “Morningglory plant response rating” value (morningglory [6]) was 55, the “Plant response rating, Morningglory” value (morningglory [6]; [15]) was 70 and the “Plant response rating, Morningglory” value (morningglory [6]; [16]) was 40. The “Pigweed plant response rating” value (pigweed [7]) was 25, the “Plant response rating, Pigweed” value (pigweed [7]; [15]) was 60 and the “Plant response rating, Pigweed” value (pigweed [7]; [16]) was 40. The “Plant response rating, Ragweed” value (ragweed; [15]) was 45 and the “Plant response rating, Ragweed” value (ragweed; [16]) was 50.
In the case of `CCNC(=O)c1cc(CC)n(Cc2cc(C(F)(F)F)nn2C)n1` [Compound 154], the “Morningglory plant response rating (0 to 100 scale)” value (morningglory [1]) is reported as 100, the “Morningglory plant response rating” value (morningglory [1]; [17]) is reported as 100 and the “Wheat plant response rating (0 to 100 scale)” value (wheat) is reported as 0. For the same molecule, the “Wheat plant response rating” value (wheat; [17]) was 100, the “Corn plant response rating (0 to 100 scale)” value (corn) was 0 and the “Corn plant response rating” value (corn) was 30. The “Blackgrass plant response rating” value (blackgrass [2]; [8]) was 75, the “Blackgrass plant response rating” value (blackgrass [2]; [9]) was 90 and the “Plant response rating, Blackgrass” value (blackgrass [2]; 13 to 15 days) was 90. The “Blackgrass plant response rating” value (blackgrass [2]; [10]) was 90, the “Ryegrass, Italian plant response rating” value (ryegrass, Italian; [18]) was 5 and the “Ryegrass, Italian plant response rating” value (ryegrass, Italian; [12]) was 10. The “Plant response rating, Ryegrass, Italian” value (ryegrass, Italian; [13]) was 50, the “Ryegrass, Italian plant response rating” value (ryegrass, Italian; [14]) was 90 and the “Johnsongrass plant response rating” value (johnsongrass; [18]) was 5. For the same molecule, the “Johnsongrass plant response rating” value (johnsongrass; [12]) was 5, the “Plant response rating, Johnsongrass” value (johnsongrass; [13]) was 55 and the “Johnsongrass plant response rating” value (johnsongrass; [14]) was 85. The “Morningglory plant response rating” value (morningglory [3]; [18]) was 35, the “Morningglory plant response rating” value (morningglory [3]; [12]) was 90 and the “Plant response rating, Morningglory” value (morningglory [3]; [13]) was 100. The “Morningglory plant response rating” value (morningglory [3]; [14]) was 100, the “Pigweed plant response rating” value (pigweed [4]; [18]) was 85 and the “Pigweed plant response rating” value (pigweed [4]; [12]) was 98. For the same molecule, the “Plant response rating, Pigweed” value (pigweed [4]; [13]) was 100, the “Pigweed plant response rating” value (pigweed [4]; [14]) was 100 and the “Barnyardgrass plant response rating” value (barnyardgrass; [8]) was 55. The “Barnyardgrass plant response rating” value (barnyardgrass; [9]) was 95, the “Plant response rating, Barnyardgrass” value (barnyardgrass; 13 to 15 days) was 100 and the “Barnyardgrass plant response rating” value (barnyardgrass; [10]) was 100. The “Plant response rating (scale of 0 to 100 where 0 is no effect and 100 is complete control), Blackgrass” value (blackgrass [5]) was 0, the “Blackgrass plant response rating” value (blackgrass [5]) was 0 and the “Plant response rating, Blackgrass” value (blackgrass [5]; [15]) was 40. For the same molecule, the “Plant response rating, Blackgrass” value (blackgrass [5]; [16]) was 10, the “Plant response rating (scale of 0 to 100 where 0 is no effect and 100 is complete control), Morningglory” value (morningglory [6]) was 15 and the “Morningglory plant response rating” value (morningglory [6]) was 60. For the same molecule, the “Plant response rating, Morningglory” value (morningglory [6]; [15]) was 95, the “Plant response rating, Morningglory” value (morningglory [6]; [16]) was 85 and the “Pigweed plant response rating” value (pigweed [7]) was 65. The “Plant response rating, Pigweed” value (pigweed [7]; [15]) was 95, the “Plant response rating, Pigweed” value (pigweed [7]; [16]) was 85 and the “Plant response rating, Ragweed” value (ragweed; [15]) was 35. For the same molecule, the “Plant response rating, Ragweed” value (ragweed; [16]) was 15.
